These results are taken from patent US20240262835A1, “PRMT5 INHIBITING COMPOUNDS AND USES THEREOF” (ANTENGENE DISCOVERY LIMITED, priority 2023, published 2024).

One data set concerns the target PRMT5/MEP50 (Homo sapiens (Human), UniProt O14744). In words: MTase-Glo methyl transferase assay (PRMT5 inhibition). As to conditions: 50 nM PRMT5/MEP50, 25 μM SAM, 5 μM Histone H4 peptide (1-21), read-out: IC50 for PRMT5 inhibiting. It counts as biochemical. The protocol:
The PRMT5 inhibitory activity of test compounds was determined using the MTase-Glo™ assay (Promega), which monitors the product (S-adenosyl homocysteine or SAH) of methyltransferase reactions. The PRMT5 MTase-Glo assays were conducted in a 384-well white ProxiPlate (PerkinElmer, catalog no.: 6008280) in a total volume of 12 μL. The PRMT5 enzymatic reaction (in 4 μL) contained 50 nM PRMT5/MEP50 (Reaction Biology Corp, catalog no.: HMT-22-148), 25 μM S-adenosyl methionine (SAM, Promega), 5 μM Histone H4 peptide (1-21) (BPS Bioscience, catalog no.: 52018-2) and five-fold serially diluted compounds in a reaction buffer of 50 mM Tris (pH 8.0), 50 mM NaCl, 0.01% Tween 20, 0.01% BSA, and 1 mM DTT. The test compounds were pre-incubated with PRMT5/MEP50 and Histone H4 peptide for 20 minutes at room temperature before the addition of SAM to initiate the PRMT5 reaction. The reaction was allowed to proceed for 1 hour at 37° C. and was terminated by 2 μL of 3× MTase-Glo™ Reagent (Promega) and 150 μM EPZ015666 (Selleck, catalog no.: 1616391-65-1). After a 30-minute incubation at room temperature, 6 μL of MTase-Glo™ Detection Solution (Promega) was added and the plate was incubated at room temperature for an additional 30 minutes. The light signal corresponding to the amount of SAH produced by the PRMT5 reaction was subsequently measured using an Envision multimode reader (PerkinElmer). IC50 and Ki values were obtained by analyzing dose-response curves using GraphPad Prism.

A further data set has as its target PRMT5/MEP50 complex (Homo sapiens (Human), UniProt O14744). In words: PRMT5/MEP50 HotSpot methyltransferase assay (with 100 nM MTA). It counts as biochemical. As to conditions: histone H2A substrate, 1 μM 3H-SAM. As to the method: The assay used recombinant full-length histone H2A as the substrate of PRMT5. Enzymatic transfer of the tritiated methyl group from S-adenosyl-L-[methyl-3H]methionine (3H-SAM) to the histone H2A protein generated a radiolabeled histone H2A by measuring in a scintillation counter to determine the activity of PRMT5 enzyme in the presence and absence of compound. The assay reactions were conducted in the presence of 100 nM MTA. Briefly, compounds were solubilized in 100% DMSO at the highest concentration of 10 mM. […] Control samples lacking compound, PRTM5/MEP50 complex or various reaction components also were prepared and processed in parallel with compound test samples. SAH was used as a positive control for assay validation. To measure PRMT5 inhibitory activity, 1 nM PRTM5/MEP50 complex was preincubated with test compound in assay buffer containing 5 μM full-length histone H2A for 15 minutes at room temperature. The enzymatic reaction was initiated by adding 1 μM 3H-SAM (final concentration) and the mixture was incubated at 30° C. for 1 hour. The reaction was stopped and transferred to filter paper for detection. The amount of tritiated H2A in each sample was determined using a scintillation counter. The IC50 value for each compound was calculated from each 10-point dose-response curve for samples using GraphPad Prism software.

For data set [1], the system named is HCT116 parental (wild type) cells. Put plainly: HCT116 cell proliferation assay (CTG), parental cells. It counts as cell-based, human. As to conditions: Cell Titer-Glo. As to the method:
(§1) Control samples were analyzed in parallel.
(§2) On Day 0, 150 HCT116 parental or HCT116 homozygous MTAP knockout cells were seeded in 96-well plates in McCoy's 5A medium containing 10% fetal bovine serum and pen/strep. And the cells were incubated overnight at 37° C. and 5% CO2.
(§3) On Day 1, cells were treated with 9-point serial dilution of compound, using a top concentration of 50 μM, 1:5 serial dilution steps and, a DMSO-only control. And cells were incubated for 6 days.
(§4) On Day 7, cell viability was measured using a CTG assay Kit (Cell Titer-Glo; Promega, catalog no.: G7573) in accordance with the manufacturer's instructions. Assays plates were read on a EnVision™ Multilabel Reader using the Ultra-Sensitive luminescence model. The data were analyzed by GraphPad Prism 5.0 software, and the dose-effect curve was obtained by fitting the data using nonlinear S-curve regression, from which the IC50 value was calculated.

For data set [2], the system named is HCT116 homozygous MTAP knockout cells. Put plainly: HCT116 cell proliferation assay (CTG), MTAP knockout cells. It counts as cell-based, human. As to conditions: Cell Titer-Glo. As to the method:
as §1, §2, §3, §4
(In ATP-based viability assays light output follows the ATP content of the culture.)

The conditions of data set [3]: rat, microsomes, 1 μM.
Data set [4] in a line: in vitro. As to conditions: human, microsomes.
The nature of data set [5]: in vitro. As to conditions: dog, microsomes.
Data set [6] in a line: in vitro. As to conditions: cynomolgus monkey, microsomes.
A short description of data set [7]: Liver microsome metabolic stability (LMS) assay, human. As to conditions: human, microsomes. On the technique in general: Liver microsomes are a subcellular fraction often used to study metabolism.
Data set [8] addresses hERG potassium ion channel (Homo sapiens (Human), UniProt Q12809). In words: hERG potassium ion channel inhibition assay (automated patch-clamp, CHO-hERG cells). It counts as cell-based. As to conditions: Qpatch, highest test concentration 40.00 μM. The protocol:
Drug-hERG interaction was measured by automated patch-clamp methods, with cisapride as positive control.
1.1 CHO-hERG cells were cultured in 175 cm^2 culture bottle. After the cell density grew to 60-80%, the culture medium was removed, washed with 7 mL of phosphate buffered saline (PBS), and then digested with 3 mL Detachin.
1.2 After the digestion was complete, 7 mL culture solution was added for neutralization, and then centrifuged, the clear solution was sucked, and 5 mL culture solution was added for re-suspension to ensure the cell density was 2˜5×10^6/mL.
The process of single-cell high-impedance sealing and whole-cell pattern formation was all automatically completed by Qpatch instrument. After obtaining whole-cell recording mode, the cell was pinching at −80 millivolts. Before giving a 5-second +40 millivolt depolarization stimulus, a 50-millisecond pre-voltage of −50 millivolts was given first, and then repolarized to −50 millivolts for 5 seconds. Go back to −80 millivolts. This voltage stimulation was applied every 15 seconds, recorded for 2 minutes, then extracellular fluid was given and recorded for 5 minutes, and then the administration process began. The concentration of test compound was given from the lowest test concentration for 2.5 minutes per test concentration. After continuous administration of all concentrations, the positive control 3 μM cisapride was given. At least 2 cells were tested for each concentration (n≥2).
4.1 The compound mother liquor was diluted with DMSO, and 10 μL compound stock solution was added to 20 μL DMSO solution, which was continuously 3-fold diluted to 6 DMSO-concentrations.
4.2 4 μL of test compounds in 6 DMSO-concentrations were added to 396 μL extracellular solution and were 100-fold diluted to 6 intermediate concentrations. Then, 80 μL of test compounds in 6 intermediate concentrations were added to 320 μL extracellular solution and were 5-fold diluted to the final concentration to be tested.
4.3 The highest test concentration was 40.00 μM, and six test concentrations were 40.00, 13.33, 4.44, 1.48, 0.49, 0.16 μM, respectively.
4.5 Entire dilution process for test compound preparation was performed by Bravo instrument.
The experimental data were analyzed by GraphPad Prism 5.0 software.
(In general: The hERG channel carries a current that helps repolarise heart muscle cells.)

Data set [9] can be described thus: In vivo pharmacokinetics assay in mice via IV and PO. Also noted: species or system ICR mice. As to conditions: for Cmax: read-out: Cmax; for AUC0-t: read-out: AUC0-t. As to the method:
Pharmacokinetics assay for test compounds was performed in mice via IV and PO.
Test compound solution was prepared on the day of administration.
Solvent: IV+PO: 5% DMSO+10% Soultol+85% H2O or saline
Species: ICR mice; SPF level.
Source: Beijing Vital River Laboratory Animal Technology Co., Ltd.
Animal selection: Males. No random grouping
Weighed before dosing, calculated dosage according to body weight. For Groups 1-3, the drug was administered intravenously or intragastrically. For Group 4, the drug administered intragastrically.
For Groups 1-3, at 0.083 h, 0.25 h, 0.5 h, 1 h, 2 h, 4 h, 6 h, 8 h, 24 h, after administration. For Group 4, at 2 h and 4 h after administration.
Blood was collected through the cheeks. For each sample, about 0.05 mL of blood was collected and was added heparin sodium or EDTA-2K as anticoagulant, and was placed on wet ice.
The blood samples were collected and placed on ice and was centrifuged within 1 hour (centrifugation: 6000 g, 3 minutes, 2-8° C.) to separate plasma. Plasma samples were stored in a −80° C. refrigerator prior to analysis.
The pharmacokinetic parameters were calculated using Phoenix WinNonlin8.2.0 based on the blood concentration data at different time points, and AUC0-t, AUC0-∞, MRT0-∞, Cmax, Tmax, and T1/2 and mean values and standard deviations thereof were provided.

A short description of data set [10]: Liver microsome metabolic stability (LMS) assay, mouse.
For data set [11] the following is noted: human, microsomes.
Where [12] appears, read: Homo sapiens, HCT-116, 6 days treatment.
[13] abbreviates: male, ICR, mouse, plasma, PO 30 mg/kg.
[14] abbreviates: male, ICR, mouse, plasma, PO 50 mg/kg.

Molecules are shown by their SMILES. Like-named read-outs stand apart in the source and are kept apart here.

Sequence of PRMT5/MEP50 (O14744 whole entry): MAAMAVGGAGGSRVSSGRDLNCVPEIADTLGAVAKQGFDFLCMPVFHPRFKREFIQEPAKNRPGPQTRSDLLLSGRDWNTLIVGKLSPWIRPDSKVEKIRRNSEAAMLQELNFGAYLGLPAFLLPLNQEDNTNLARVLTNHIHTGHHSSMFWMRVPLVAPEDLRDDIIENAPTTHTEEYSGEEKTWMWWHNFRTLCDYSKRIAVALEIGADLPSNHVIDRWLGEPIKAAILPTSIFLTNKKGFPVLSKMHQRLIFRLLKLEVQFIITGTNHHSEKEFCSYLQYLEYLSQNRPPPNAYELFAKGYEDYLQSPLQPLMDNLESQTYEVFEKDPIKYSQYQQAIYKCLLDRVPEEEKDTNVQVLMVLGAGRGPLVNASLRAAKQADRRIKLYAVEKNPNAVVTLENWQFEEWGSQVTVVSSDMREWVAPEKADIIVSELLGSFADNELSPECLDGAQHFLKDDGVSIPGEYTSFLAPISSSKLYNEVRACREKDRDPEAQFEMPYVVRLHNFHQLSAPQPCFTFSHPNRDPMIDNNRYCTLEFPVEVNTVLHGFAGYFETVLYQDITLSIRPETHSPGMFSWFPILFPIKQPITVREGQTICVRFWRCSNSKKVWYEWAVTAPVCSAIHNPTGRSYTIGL
Sequence of PRMT5/MEP50 (Q9BQA1 whole entry partner): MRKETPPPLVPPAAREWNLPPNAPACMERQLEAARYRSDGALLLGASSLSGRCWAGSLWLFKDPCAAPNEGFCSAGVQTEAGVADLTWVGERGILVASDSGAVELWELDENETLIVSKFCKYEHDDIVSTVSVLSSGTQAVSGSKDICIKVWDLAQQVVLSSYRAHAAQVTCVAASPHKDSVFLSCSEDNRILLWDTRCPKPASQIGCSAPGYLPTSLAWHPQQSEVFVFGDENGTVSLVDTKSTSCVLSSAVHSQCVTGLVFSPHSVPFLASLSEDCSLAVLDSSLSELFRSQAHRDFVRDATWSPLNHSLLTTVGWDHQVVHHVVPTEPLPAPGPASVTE
Sequence of PRMT5/MEP50 complex (O14744 whole entry, species assumed): as the sequence (O14744 whole entry) above
Sequence of PRMT5/MEP50 complex (Q9BQA1 whole entry partner, species assumed): as the sequence (Q9BQA1 whole entry partner) above
Sequence of hERG potassium ion channel (Q12809 whole entry): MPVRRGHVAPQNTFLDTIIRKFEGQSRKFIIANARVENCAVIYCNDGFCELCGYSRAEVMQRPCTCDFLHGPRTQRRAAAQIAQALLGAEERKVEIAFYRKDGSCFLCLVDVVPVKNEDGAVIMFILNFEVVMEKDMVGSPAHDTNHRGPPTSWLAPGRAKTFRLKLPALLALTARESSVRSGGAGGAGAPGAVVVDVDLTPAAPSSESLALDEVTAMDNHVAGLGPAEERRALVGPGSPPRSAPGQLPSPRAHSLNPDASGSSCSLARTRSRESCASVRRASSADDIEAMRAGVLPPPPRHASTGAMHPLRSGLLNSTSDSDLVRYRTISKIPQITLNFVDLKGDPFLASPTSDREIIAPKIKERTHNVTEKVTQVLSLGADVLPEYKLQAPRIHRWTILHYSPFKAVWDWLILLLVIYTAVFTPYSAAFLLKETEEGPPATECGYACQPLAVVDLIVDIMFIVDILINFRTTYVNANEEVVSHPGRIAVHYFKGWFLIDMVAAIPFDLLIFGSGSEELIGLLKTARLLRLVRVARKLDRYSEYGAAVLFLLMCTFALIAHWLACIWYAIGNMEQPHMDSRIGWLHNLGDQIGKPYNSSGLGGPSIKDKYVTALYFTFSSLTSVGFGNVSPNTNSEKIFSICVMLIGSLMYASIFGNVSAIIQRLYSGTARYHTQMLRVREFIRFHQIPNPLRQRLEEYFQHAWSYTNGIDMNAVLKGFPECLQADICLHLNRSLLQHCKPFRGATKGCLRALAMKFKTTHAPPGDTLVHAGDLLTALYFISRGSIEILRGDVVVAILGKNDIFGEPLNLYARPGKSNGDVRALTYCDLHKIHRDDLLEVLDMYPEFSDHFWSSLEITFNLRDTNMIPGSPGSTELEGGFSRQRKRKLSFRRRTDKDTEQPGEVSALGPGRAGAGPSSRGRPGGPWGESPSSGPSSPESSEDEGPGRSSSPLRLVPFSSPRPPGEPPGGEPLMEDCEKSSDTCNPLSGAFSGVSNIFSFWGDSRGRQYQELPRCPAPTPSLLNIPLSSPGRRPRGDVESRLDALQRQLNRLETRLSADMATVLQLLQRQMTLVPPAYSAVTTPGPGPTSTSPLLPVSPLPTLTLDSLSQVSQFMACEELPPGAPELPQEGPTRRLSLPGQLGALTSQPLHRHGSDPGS

Broadly, the IC50 is the concentration that inhibits the measured activity by half. Turning to `Cc1nc(C)n2c1c(N)nc1ccc(C(=O)N(Cc3ccc(C(F)(F)F)cn3)[C@H](C)c3ncccn3)cc12` [Compound 9], the IC50 at PRMT5/MEP50 is 101 nM; against PRMT5/MEP50 complex, 321 nM; in data set [1] (6 days treatment), 1160 nM; in [2] (6 days treatment), 72 nM.
Regarding `Cc1ncn2c1c(N)nc1ccc(C(=O)N(Cc3ccc(C(F)(F)F)cn3)[C@H](C)c3ncccn3)cc12` [Compound 8], the IC50 on PRMT5/MEP50 amounted to 104 nM; against PRMT5/MEP50 complex it was 198 nM; in [1] (6 days treatment) it was 146 nM; in data set [2] (6 days treatment), 97 nM.
As a reminder, the half-life is the time in which the quantity being followed falls by half. A high value points to slow loss. A word on the microsomal CLint: it is the rate of metabolic loss divided by the concentration. Low values mean slow turnover, high ones rapid turnover. Broadly, the CLint scaled is a measure of how fast metabolising enzymes remove a compound, apart from limits set by blood flow. Read a low CLint scaled as slow turnover. On to `O=C(O)Cc1ccccc1Nc1c(Cl)cccc1Cl` [Ref. 5, Diclofenac], for which the “CLint (liver) R” value in data set [3] was determined as 233.1 mL/min/kg. Besides, the half-life at 1 μM is 0.112 h in the data set “in vitro [4]”, greater than 2.42 h in “in vitro [5]” and greater than 2.42 h in “in vitro [6]”. Also, the microsomal CLint at 1 μM in the data set “in vitro [4]” was 206 µL/min/mg; in the data set “in vitro [5]”, less than 9.6 µL/min/mg; in the data set “in vitro [6]” it was less than 9.6 µL/min/mg. The CLint scaled at 1 μM in the data set “in vitro [5]” is less than 13.8 mL/min/kg; in “in vitro [6]” it was less than 13 mL/min/kg; in data set [7], 185 mL/min/kg.
The term Cmax denotes the highest concentration seen after dosing. As for `CN(C(=O)c1cc2c(cn1)nc(N)c1cncn12)[C@@H]1COc2cc(C(F)(F)F)ccc21` [Compound 14], the IC50 is 47 nM at PRMT5/MEP50, 6270 nM in data set [1] (setting [12]), 70 nM in [2] (setting [12]) and 17900 nM in data set [8]. In addition, the C8 h stood at 3833 ng/mL in data set [9] (PO 30 mg/kg, plasma) and 6927 ng/mL in [9] (PO 50 mg/kg, plasma). Further, the C24 h in [9] (PO 30 mg/kg, plasma) is recorded as 574 ng/mL; in [9] (PO 50 mg/kg, plasma), 615 ng/mL. For the same compound, the Cmax was 7500 ng/mL in data set [9] (male, ICR, mouse, PO 30 mg/kg, plasma) and 9920 ng/mL in [9] (male, ICR, mouse, PO 50 mg/kg, plasma). In data set [9] (male, ICR, mouse, plasma, IV 1.0 mg/kg), this compound returned a clearance of 7.62 mL/min/kg. Also, the half-life in data set [9] (setting [13]) is 5.96 h; in data set [9] (setting [14]) it was 5 h. Moreover, the results for the AUC0-t in [9] (setting [13]) and in data set [9] (setting [14]) were 81.1 µg·h/mL and 123 µg·h/mL, respectively. Moreover, the half-life at 1 μM was greater than 2.42 h in the data set “in vitro [4]” and 2.2 h in data set [10] (mouse, liver microsomes).
On to `Cc1ncc2c(N)nc3ccc(C(=O)N(Cc4ccc(C(F)(F)F)cn4)[C@H](C)c4ncccn4)cc3n12` [Compound 7], for which the IC50 amounted to 91 nM at PRMT5/MEP50, 91 nM against PRMT5/MEP50 complex, 961 nM in data set [1] (6 days treatment) and 77 nM in [2] (6 days treatment).
Regarding `CN(C(=O)c1cc2c(cn1)nc(N)c1cncn12)[C@@H]1CC(F)(F)c2cc(C(F)(F)F)ccc21` [Compound 26], the IC50 at PRMT5/MEP50 was 34 nM; in data set [1] (6 days treatment) it was 6590 nM; in data set [2] (6 days treatment) it was 64 nM; in [8] it was 13600 nM. This compound also registered a Cl in data set [9] (IV 1.0 mg/kg) of 10.5 mL/min/kg. In [11], the “T1/2 of LMS, H” value was determined as 2.32 h. Also, the “T1/2 of LMS, M” value in data set [10] (mouse liver microsome 0.5 mg protein/mL, 1 μM, NADPH) came out at 1.98 h.
